The record followed here is patent US8039076B2, “Dye and recording media utilizing the same” (Industrial Technology Research Institute, priority 2006, dated 2011).

This data set in a line: Optical measurement of the dyes by UV-visible spectrophotometer. Further details: Max absorption wavelength in MeOH solution: unit: nm. The following applies: for absorption coefficient (ε) (* 10^4) / Max absorption wavelength in MeOH solution: MeOH solution. It is filed as physicochemical. From the text:
Measured by UV-visible spectrophotometer, the optical properties (e.g. maximum absorption wavelength in solution) of the dyes of the preferred embodiments are tabulated in Table 1. In Table 1, dye I-2 has a maximum absorption wavelength of 489 nm in methanol solution, and dye V-2 has a maximum absorption wavelength of 493 nm in methanol solution, respectively.

The mark [1] stands for this setting: at second printed absorption maximum.

Regarding `CC1=[N+](C)c2ccccc2C1(C)C` [Dye I-2], the “maximum absorption wavelength in methanol solution” value is recorded as 489 nm. For the same compound, the “absorption coefficient (ε) (* 10^4)” value (at first absorption maximum) is recorded as 15.4 * 10^4. Besides, the “Max absorption wavelength in MeOH solution” value (“Max absorption wavelength” below) (first band) is 489.

With `CC1=[N+](C)c2ccccc2C1(C)C` [Dye V-2], the “maximum absorption wavelength in methanol solution” value is 493 nm. Further, the “absorption coefficient (ε) (* 10^4)” value (at first absorption maximum) is on record as 19.1 * 10^4. For the same compound, the “Max absorption wavelength” value (first band) came to 493.

With `c1ccncc1` [I-a], the “absorption coefficient (ε) (* 10^4)” value (at first absorption maximum) was 4.98 * 10^4. Further, the “Max absorption wavelength” value (first band) worked out at 460.

Consider `CC1=[N+](Cc2ccc(C(=O)OCC(F)(F)C(C)F)cc2)c2ccccc2C1(C)C` (stereo not drawn) [I-b], for which the “absorption coefficient (ε) (* 10^4)” value (at first absorption maximum) is 8.4 * 10^4. The “Max absorption wavelength” value (first band) amounted to 495.

In the case of `CCCC[N+](CCCC)(CCCC)CCCC` [I-c], the “absorption coefficient (ε) (* 10^4)” value (at first absorption maximum) is on record as 6.22 * 10^4. Further, the “Max absorption wavelength” value (first band) amounted to 460.

For the compound `CCCCN(CCCC)c1ccc([N+](=C2C=CC(=[N+](c3ccc(N(CCCC)CCCC)cc3)c3ccc(N(CCCC)CCCC)cc3)C=C2)c2ccc(N(CCCC)CCCC)cc2)cc1` [I-d], the “absorption coefficient (ε) (* 10^4)” value was 6.58 * 10^4 (at first absorption maximum) and 5.11 * 10^4 under setting [1]. The “Max absorption wavelength” value is given as 460 (first band) and 1067 (second printed band).

Regarding `CC1=[N+](Cc2ccc(C(=O)OCC(F)(F)C(F)F)cc2)c2ccccc2C1(C)C` [I-e], the “absorption coefficient (ε) (* 10^4)” value (at first absorption maximum) is on record as 7.58 * 10^4. The “Max absorption wavelength” value (first band) worked out at 471.

In the case of `CC1=[N+](Cc2ccc(C(=O)OCC(F)(F)C(F)F)cc2)c2ccccc2C1(C)C` [I-f], under “at first absorption maximum”, the “absorption coefficient (ε) (* 10^4)” value is listed as 8.08 * 10^4. Under “first band”, the “Max absorption wavelength” value is listed as 448.

For the compound `CC1=[N+](Cc2ccc(C(=O)OCC(F)(F)C(F)F)cc2)c2ccccc2C1(C)C` [I-g], the “absorption coefficient (ε) (* 10^4)” value (at first absorption maximum) is listed as 12.99 * 10^4. The “Max absorption wavelength” value (first band) was 463.

Turning to `CC1=[N+](C)c2ccccc2C1(C)C` [I-h], the “absorption coefficient (ε) (* 10^4)” value (at first absorption maximum) is given as 18.5 * 10^4. Moreover, the “Max absorption wavelength” value (first band) is 462.

Regarding `CC1=[N+](Cc2ccc(C(=O)OCC(F)(F)C(F)F)cc2)c2ccccc2C1(C)C` [I-i], the “absorption coefficient (ε) (* 10^4)” value (at first absorption maximum) was 12.2 * 10^4. In addition, the “Max absorption wavelength” value (first band) amounted to 464.

On to `CCCC[N+]1=C(C)C(C)(C)c2ccccc21` [I-j], for which the “absorption coefficient (ε) (* 10^4)” value (at first absorption maximum) is 12.1 * 10^4. Further, for the setting “first band”, the “Max absorption wavelength” value was 459.

Take `CCOC(=O)CCCC[N+]1=C(C)C(C)(C)c2ccccc21` [I-k]: for the setting “at first absorption maximum”, the “absorption coefficient (ε) (* 10^4)” value is reported as 11.8 * 10^4. Besides, the “Max absorption wavelength” value (first band) is recorded as 460.

For `COS(=O)(=O)CCCC[N+]1=C(C)C(C)(C)c2ccccc21` [I-l], where the note is “at first absorption maximum”, the “absorption coefficient (ε) (* 10^4)” value is given as 12.5 * 10^4. In addition, the “Max absorption wavelength” value (first band) worked out at 461.

As to `Cc1sc2ccccc2[n+]1C` [I-m], the “absorption coefficient (ε) (* 10^4)” value (at first absorption maximum) is reported as 10.7 * 10^4. Besides, the “Max absorption wavelength” value (first band) is given as 472.

With `CC1=[N+](C)c2ccccc2C1(C)C` [I-n], where the note is “at first absorption maximum”, the “absorption coefficient (ε) (* 10^4)” value is recorded as 11.5 * 10^4. Moreover, the “Max absorption wavelength” value (first band) is reported as 462.

Consider `CCCC[N+](CCCC)(CCCC)CCCC` [V-a], for which, under “at first absorption maximum”, the “absorption coefficient (ε) (* 10^4)” value is listed as 6.41 * 10^4. In addition, the “Max absorption wavelength” value (first band) is reported as 461.

For `CC1=[N+](Cc2ccc(C(=O)OCC(C)(C)C(C)C)cc2)c2ccccc2C1(C)C` [V-b], under “at first absorption maximum”, the “absorption coefficient (ε) (* 10^4)” value was 9.72 * 10^4. Besides, the “Max absorption wavelength” value (first band) was 492.

For the compound `CCCCN(CCCC)c1ccc([N+](=C2C=CC(=[N+](c3ccc(N(CCCC)CCCC)cc3)c3ccc(N(CCCC)CCCC)cc3)C=C2)c2ccc(N(CCCC)CCCC)cc2)cc1` [V-c], the “absorption coefficient (ε) (* 10^4)” value (at first absorption maximum) is on record as 6.8 * 10^4 and the “absorption coefficient (ε) (* 10^4)” value under setting [1] is recorded as 3.8 * 10^4. Moreover, the “Max absorption wavelength” value by setting is: (first band) 461; (second printed band) 1067.

For the compound `CCN(CC)CC` [V-d], where the note is “at first absorption maximum”, the “absorption coefficient (ε) (* 10^4)” value is 8.45 * 10^4. Moreover, the “Max absorption wavelength” value (first band) is reported as 463.

With `CC1=[N+](C)c2ccccc2C1(C)C` [V-e], the “absorption coefficient (ε) (* 10^4)” value (at first absorption maximum) is on record as 10.35 * 10^4. Also, the “Max absorption wavelength” value (first band) is given as 490.
